Legend:
[1] = system: RORγt; test: RORγt mRNA by real-time PCR in CD4 T cells under Th-17 culture conditions; format: cell-based, mouse; conditions: α-CD3ε and α-CD28, IL-17 inducing cytokines
Text: For analysis of RORγ-T mRNA expression, naïve CD4^+T cells were purified essentially as described by Ivanov et al. [Ivanov, II et al., Cell 126, 1121 (2006)]. In brief, CD4+ T cells were purified from spleens of C57BL/6 mice using anti-CD4 magnetic microbeads (Miltenyi Biotec) and MACS columns. CD4^+T cells were stained with anti-CD25-PE, anti-CD4-PECy5, anti-CD62L-FITC, and anti-CD44-APC. The CD4^+CD25^− CD44^lowCD62L^+ T cells population was sorted by flow cytometry using a FACS-DIVA cell sorter (>99% purity). Some studies were also performed using CD4^+CD45RB^high T cell population, sorted as described above.
At different time-points, cells were harvested, washed with sterile PBS and resuspended in TRIZol (Invitrogen, USA). Samples were then frozen and kept at −80° C. for later utilization. For RNA isolation, the whole tissue was homogenized and RNA was separated from DNA and proteins by precipitation with chloroform and extraction with isopropanol. The cDNA was synthesized from the total RNA using the Superscript II system (Invitrogen, USA) following the instructions provided by the manufacturer. […] Data were collected and analyzed on an iCycler Bio-Rad (Hercules, USA).

[2] = system: CD8^+T cells from OT-I TCR transgenic mice
Description: (§1) The culture medium used for dendritic cell-T cell cultures was Iscove's modified Dulbecco medium (IMDM) (Gibco, USA) supplemented with 10% heat-inactivated FCS, 2 mM L-glutamine, 100 U/ml penicillin, 100 μg/ml streptomycin, and 5 mM β-mercaptoethanol (all Sigma, USA). […] For dendritic cell-T cell cultures, 2×10^4 dendritic cells and 1×10^5 T cells were cultured in a volume of 200 μl (96-well plates). For irradiated APC-T cell cultures, 5×10^5 APCs and 1×10^5 T cells were cultured in a volume of 200 μl in 96-well plates (2×10^6 APCs and 0.5×10^6 T cells per well in 48-well plates). […] For the study shown in FIG. 4A, after sorting of naive CD4^+ cells (CD25^−CD44^lowCD62L^+), cells were washed twice in PBS+0.1% BSA, counted and labeled with 2 μM of CFSE (Carboxyfluorescein diacetate, succinimidyl ester) (Molecular Probes, USA) at a concentration of 5−10×10^6 cells per ml in PBS-0.1% BSA.
(§2) For Foxp3 staining, no stimulation with PMA/Ionomycin was performed, with the exceptions of FIGS. 8B and 9A.

[3] = system: RAR; conditions: cited from earlier work
[4] = system: naïve CD4^+T cells from B7.1/2^−/− IL-2^+/+ or B7.1/2^−/− IL-2^−/− mice; test: RA-mediated effects on T cell differentiation without IL-2 (anti-IL-2 or IL-2−/− T cells) or with exogenous IL-2; format: cell-based, mouse
Description: as §1, §2

[5] = system: Polyclonal CD4^+CD25^− spleen T cells; test: APC-free Th-17 generation (anti-CD3/CD28 beads, IL-17 cond.: TGF-β, IL-6, IL-1β, TNF-α); format: cell-based, mouse
Description: as §1
(§3) To block non-specific staining, the 2.4G2 anti-CD16/32 antibody was added. […] For intracellular cytokine staining, cells obtained from in vitro cultures or isolated IELs were incubated for 4-5 hours with 50 ng/ml PMA, 750 ng/ml Ionomycin (both Sigma, USA) and 10 μg/ml Brefeldin A (Invitrogen, USA) in a tissue culture incubator at 37° C.

[6] = system: CD4^+CD25^−T cells; test: CTLA-4, CD103, CCR9 and CD25 staining of CD4 T cells stimulated with spleen APCs plus TGF-β1 and/or RA; format: cell-based, mouse
Description: (§4) For CD4^+CD25^− T cell isolation, spleens were removed, teased into cell-single suspensions and filtered through a 70 μm cell strainer (Fisher Scientific, USA). CD4^+CD25^−T cells were isolated by negative selection after incubation with a mix of specific biotin-conjugated mAbs (anti-CD8, CD11b, CD11ε, CD25, CD45R (B220), NK1.1, and TER119) at 1/200 dilution, and anti-biotin magnetic microbeads (25-40 μl per spleen) (Miltenyi Biotec, USA).
APCs were isolated from spleen of C57BL/6 mice by negative selection using CD90.2 (Thy1.2) magnetic microbeads to deplete T cells (Miltenyi Biotec).
as §1, §3

[7] = system: CD4^+CD25^− spleen T cells; test: Th-17 differentiation of CD4 T cells stimulated with dendritic cells or spleen APCs plus TGF-β and IL-6 (intracellular IL-17 staining, IL-17 ELISA); format: cell-based, mouse
Description: as §4
For dendritic cells isolation, spleen and MLN were chopped and digested by collagenase type D (Roche, USA) for 30 min at room temperature. Digested tissues were treated with 5 mM of EDTA for additional 5 min and mashed through a 70 μm cell strainer. Subsequently, CD11c^+ cells were enriched by positive selection using anti-CD11c microbeads according to the manufacturer's protocol (Miltenyi Biotec, USA). Enriched populations were stained with CD45-APC, CD 11c-PE, I-A^b-FITC and TCR β and sorted for TCRβ^−CD45^+CD11c^+I-Ab^+ by flow cytometry using a FACS-DIVA cell sorter (USA).
as §1
To block non-specific staining, the 2.4G2 anti-CD16/32 antibody was added.

CC1=C(/C=C/C(C)=C/C=C/C(C)=C/C(=O)O)C(C)(C)CCC1 [RA, All-trans retinoic acid]
RORγt mRNA expression [1]: greatly reduced its expression | CD103 expression on CD8 cells ([2]; TGF-β and RA): synergized to upregulate CD103 expression | CD25 expression of CD8 T cells upon in vitro activation ([2]; in the presence of TGF-β and RA): down-regulate CD25 expression | binding to RAR-RAR homodimers and RAR-RXR heterodimers [3]: can bind | requirement for exogenously added IL-2 [4]: did not require exogenously added IL-2 | CD103 phenotype of the Foxp3^+Tregs generated ([4]; TGF-β-dependent Foxp3 differentiation): mostly CD103^+Tregs | dependence of Foxp3^+ enhancing and Th-17 inhibitory effects on IL-2 ([4]; anti-IL-2 (20 μg/ml) or IL-2−/− T cells): for the most part dependent on IL-2 | IL-17 cytokine secretion (ELISA) ([4]; culture supernatants): measurably decreased | generation of IL-17^+ T cells under APC-free conditions [5]: also inhibited the generation of IL-17^+T cells | expression of CTLA-4 on TGF-β-generated Foxp3^+ cells [6]: promoted the expression of CTLA-4 | induction of CTLA-4 on Foxp3^− and Foxp3^+ activated cells (early) ([6]; OT-II CD4 T cells, spleen APCs, TGF-β and RA): delayed | CTLA-4 and Foxp3 phenotype of the majority of cells at later time-points ([6]; OT-II CD4 T cells, spleen APCs, cultured with TGF-β and RA): both CTLA-4 and Foxp3^+ | TGF-β-mediated CD103 expression on CD4 cells ([6]; soluble α-CD3ε, spleen APCs, TGF-β1): greatly enhanced | antagonistic effect on IL-6 (Foxp3 versus IL-17) ([7]; TGF-β 5 ng/ml, varied concentrations of IL-6 and RA): dose dependent | Foxp3 / Th-17 differentiation of CD4 T cells under conditions that promote Th-17 differentiation ([7]; TNF-α, IL-1-β, TGF-β and IL-6 plus RA): converted to Foxp3^+ cells with a decrease in Th-17 differentiation | Th-17 differentiation by spleen dendritic cells ([7]; added to cultures with TGF-β and IL-6, 100 nM): inhibited the Th-17 differentiation by spleen dendritic cells
